Reference: paper PMC5118774 (Frontiers in Pharmacology, 2016)
Entries after “also recorded” stand apart in the source; their conditions may differ.

What was measured:
[1] = test system: mice exposed to unpredictable chronic mild stress (UCMS); assay: Cookie test after UCMS; type: in vivo, C57BL/6J mice
Text: (§1) Mice underwent between 6 and 8 weeks of UCMS (see Supplementary Table S1 for example UCMS schedule). Animals were exposed to 2–3 mild stressors each day throughout the light/dark cycle, including wet bedding, brief restraint, forced bath, no bedding, reduced space, and predator odor over a period of several weeks (see details in Supplementary Material) ([Edgar et al., 2011]; [Lin and Sibille, 2015]). Female mice were housed 5 per cage, and male mice were housed 4 per cage in Optimice cages (Animal Care Systems Inc, Centennial, CO, USA). In experiment 3.4, UCMS was augmented with single-cage isolation housing in male mice beginning at the fourth week of UCMS until sacrifice. A timeline of experimental procedures can be found in Figure 2A (including timeline of the sections “ Drug Treatment” and “Behavioral Testing”).
(§2) At the start of the third week of UCMS and continuing for between 28 and 42 days (including time for behavioral tests, see “Behavioral Testing”) until sacrifice, mice received daily i.p injections of vehicle (85% ddH2O, 14% propylene glycol, 1% Tween 80) or 30 mg/kg SH-053-2’F-R-CH3 (α5-PAM; synthesized in the laboratory of Dr. James M. Cook) in a volume of […]. All animals received a single daily injection (chronic α5-PAM treated mice received SH-053-2’F-R-CH3, acute α5-PAM and vehicle treated animals received vehicle injections) between 8:00AM and 9:00AM until the start of behavioral testing. After 3 weeks of treatment, all mice began receiving a second injection 30 min prior to behavioral testing. All animals received a second injection of either vehicle (for chronic α5-PAM treated animals and UCMS-vehicle treated animals) or α5-PAM acutely (α5-PAM acute animals). All injections were performed using ultra-fine insulin syringes (31 gauge, 6 mm; Becton, Dickinson and Company, Franklin Lakes, NJ, USA).
(§3) After 5 weeks of UCMS, including 3 weeks of drug treatment, animals were assessed in a battery of behavioral tests (each test separated by 48 h, UCMS continued throughout behavioral testing for a period of 1–3 weeks). These tests included: Elevated plus maze: under red light, animals were placed on a plus maze with two open and two closed arms (30 cm × 5 cm). Number of entries into all arms as well as the time spent in the open arms was recorded for 10 min. Open field test: The open field test was conducted in a 43 cm ×43 cm arena under bright (800 lux) light. Using AnyMaze software (Stoelting, Wood Dale, IL, USA), the center 50% of the arena was identified and animals were tracked for 10 min. Novelty suppressed feeding test: Mice were food deprived for 24 h the day before testing. Testing occurred in brightly lit (∼1000 lux) open field arenas covered in bedding. A normal food pellet was placed into the brightly lit center and the latency for an animal to approach and bite the pellet was recorded over a 12 min session. Immediately following the session, animals were placed into their home cage and allowed to eat a weighed food pellet to assess hunger drive. Cookie test: The cookie test apparatus contains three identically sized chambers (40 cm × 20 cm × 20 cm) separated by two offset dividers. The outer walls of each chamber were clear and the only difference between each was the color of the divider, with one divider shaded white and the other black. One week prior to experimentation, mice were habituated in their home cage to a piece (2 ± 1 g) of Keebler Fudge Stripe Cookie (Kellogg’s Company, Battle Creek, MI, USA). On the first and second day of testing, a piece of cookie (2 ± 1 g) was placed into the chamber separated by the black divider. Mice were then placed into the opposing chamber separated by the white divider and monitored for 10 min. The latency for each mouse to bite the cookie was recorded. […]

[2] = Pharmacokinetic study, plasma and brain levels after single i.p. injection; type: in vivo, C57BL/6J mice; conditions: 30 mg/kg i.p.; for Brain AUC0-3: mean ± SEM
Procedure: Adult (8 weeks old) male and female C57BL/6J (Military Farm, Belgrade, Serbia) were divided into six groups corresponding to pre-determined time intervals following a single 30 mg/kg α5-PAM injection (5, 10, 20, 40, 60, and 180 min). At 30 mg/kg α5-PAM administration has high affinity for the α5-subunit and lower affinity for GABAA-receptors containing other subunits ([Savic et al., 2010]). As the goal of this study was to selectively evaluate positive modulation of α5-containing GABAA receptors to stress-induced behaviors, we chose this dose to conduct preliminary pharmacokinetic analyses. Blood samples were collected in heparinized syringes via cardiac puncture of mice anesthetized with ketamine (100 mg/kg i.p.; 10% Ketamidor, Richter Pharma Ag, Wels, Austria), and centrifuged at 2500 rpm for 10 min to obtain plasma. Thereafter, mice were decapitated and brains were weighed, homogenized in 2 mL of methanol and centrifuged at 6000 rpm for 20 min. To determine the concentration of α5-PAM in plasma and supernatants of brain tissue homogenates, α5-PAM was extracted by solid phase extraction using Oasis HLB cartridges (Waters Corporation, Milford, MA, USA). The procedure of sample preparation and determination of α5-PAM by ultra performance liquid chromatography–tandem mass spectrometry (UPLC–MS/MS) with Thermo Scientific Accela 600 UPLC system connected to a Thermo Scientific TSQ Quantum Access MAX triple quadrupole mass spectrometer (Thermo Fisher Scientific, San Jose, CA, USA) equipped with electrospray ionization (ESI) source, is described in [Obradovic et al. (2014)].

[3] = test system: mice exposed to unpredictable chronic mild stress (UCMS); assay: Elevated plus maze after UCMS; type: in vivo, C57BL/6J mice; conditions: for EPM percentage of entries into open arms: first cohort (Figure 2)
[4] = Plasma protein and brain tissue binding, rapid equilibrium dialysis; type: in vitro ADME, mouse
Text: The rapid equilibrium dialysis assay used to determine free fraction of α5-PAM in mouse plasma and brain tissue was the same as in [Obradovic et al. (2014)].

[5] = test system: mice exposed to unpredictable chronic mild stress (UCMS); assay: Novelty suppressed feeding test after UCMS; type: in vivo, C57BL/6J mice
Text: as §1, §2, §3

[6] = female UCMS mice, acute treatment, vs UCMS-vehicle, second cohort (Figure 3)
[7] = female UCMS mice, chronic treatment, vs UCMS-vehicle, second cohort (Figure 3)
[8] = male UCMS mice, 37.5 mg/kg acute or chronic (Figure 4B), 37.5 mg/kg
[9] = male UCMS mice, acute or chronic 30 mg/kg i.p., first cohort (Figure 2)
[10] = male mice, UCMS plus single housing, chronic treatment (Figure 4A)

C#Cc1ccc2c(c1)C(c1ccccc1F)=N[C@H](C)c1c(C(=O)OCC)ncn1-2 [α5-PAM]
cookie test latency to bite the cookie ([1]; female UCMS mice, acute 30 mg/kg i.p., first cohort (Figure 2)): a trend in the same direction | cookie test latency to bite the cookie [1, 6]: reduces the latency to bite; also recorded: significantly reduced the latency to bite | cookie test latency to bite the cookie ([1]; female UCMS mice, chronic 30 mg/kg i.p., first cohort (Figure 2)): reduced the latency to bite; also recorded: significant decrease | cookie test latency to bite the cookie [1, 7]: reduces the latency to bite; also recorded: significantly reduced the latency to bite | cookie test, stress-induced behavior [1, 8]: No change; also recorded: failed to reduce | cookie test latency to bite the cookie [1, 9]: No significant effect; also recorded: No significant difference | cookie test, UCMS-induced behavioral phenotype [1, 10]: did not alter; also recorded: No significant effect | Brain AUC0-3, females relative to males [2]: approximately 1.25 X | Brain AUC0-3 ([2]; female mice): 4910.13 ± 1032.02 ng·h/g | Brain AUC0-3 ([2]; male mice): 3944.49 ± 560.30 ng·h/g | EPM open arm behavior ([3]; female UCMS mice, acute or chronic treatment, second cohort with non-stressed controls (Figure 3)): no effect | EPM percentage of entries into open arms ([3]; female UCMS mice, chronic 30 mg/kg i.p., vs UCMS-vehicle): anti-stress effect; also recorded: increased percentage of open arm entries | EPM, stress-induced behavior [3, 8]: No change; also recorded: failed to reduce | EPM percentage of entries into open arms ([3]; male UCMS mice, acute or chronic 30 mg/kg i.p.): No significant differences; also recorded: no effect | EPM, UCMS-induced behavioral phenotype [3, 10]: did not alter; also recorded: No significant effect | free fraction, brain tissue ([4]; mouse brain tissue): 2.73% | free fraction, plasma ([4]; mouse plasma): 7.44% | NSF latency to bite food pellet ([5]; female UCMS mice, acute 30 mg/kg i.p. 30 min before test, vs UCMS-vehicle, first cohort (Figure 2)): reduced the latency to bite; also recorded: reducing latency to bite | NSF latency to bite food pellet [5, 6]: reduces; also recorded: reduced the latency to bite | NSF latency to bite food pellet ([5]; female UCMS mice, chronic 30 mg/kg i.p., vs UCMS-vehicle, first cohort (Figure 2)): reduced the latency to bite; also recorded: reducing latency to bite | NSF latency to bite food pellet [5, 7]: reduces; also recorded: reduced the latency to bite | NSF, stress-induced behavior [5, 8]: No change; also recorded: failed to reduce | NSF latency to bite food pellet [5, 9]: no effect | NSF, UCMS-induced behavioral phenotype [5, 10]: did not alter; also recorded: No significant effect
